Results published in article PMC2074754, “Effects of the selective bisindolylmaleimide protein kinase C inhibitor GF 109203X on P-glycoprotein-mediated multidrug resistance” (British Journal of Cancer, 1996).

Key:
[1] = target: T1, P-glycoprotein (P-gp, MDR1) (Homo sapiens, UniProt P08183); assay: radioligand binding with self-competition by unlabelled vinblastine
T1 construct: gene ABCB1

[2] = target: T1, P-glycoprotein (P-gp, MDR1); assay: [3H]vinblastine radioligand competition and inhibition of [3H]azidopine photoaffinity labelling of the […] kDa P-gp band; format: binding

T1 sequence (P08183 whole entry): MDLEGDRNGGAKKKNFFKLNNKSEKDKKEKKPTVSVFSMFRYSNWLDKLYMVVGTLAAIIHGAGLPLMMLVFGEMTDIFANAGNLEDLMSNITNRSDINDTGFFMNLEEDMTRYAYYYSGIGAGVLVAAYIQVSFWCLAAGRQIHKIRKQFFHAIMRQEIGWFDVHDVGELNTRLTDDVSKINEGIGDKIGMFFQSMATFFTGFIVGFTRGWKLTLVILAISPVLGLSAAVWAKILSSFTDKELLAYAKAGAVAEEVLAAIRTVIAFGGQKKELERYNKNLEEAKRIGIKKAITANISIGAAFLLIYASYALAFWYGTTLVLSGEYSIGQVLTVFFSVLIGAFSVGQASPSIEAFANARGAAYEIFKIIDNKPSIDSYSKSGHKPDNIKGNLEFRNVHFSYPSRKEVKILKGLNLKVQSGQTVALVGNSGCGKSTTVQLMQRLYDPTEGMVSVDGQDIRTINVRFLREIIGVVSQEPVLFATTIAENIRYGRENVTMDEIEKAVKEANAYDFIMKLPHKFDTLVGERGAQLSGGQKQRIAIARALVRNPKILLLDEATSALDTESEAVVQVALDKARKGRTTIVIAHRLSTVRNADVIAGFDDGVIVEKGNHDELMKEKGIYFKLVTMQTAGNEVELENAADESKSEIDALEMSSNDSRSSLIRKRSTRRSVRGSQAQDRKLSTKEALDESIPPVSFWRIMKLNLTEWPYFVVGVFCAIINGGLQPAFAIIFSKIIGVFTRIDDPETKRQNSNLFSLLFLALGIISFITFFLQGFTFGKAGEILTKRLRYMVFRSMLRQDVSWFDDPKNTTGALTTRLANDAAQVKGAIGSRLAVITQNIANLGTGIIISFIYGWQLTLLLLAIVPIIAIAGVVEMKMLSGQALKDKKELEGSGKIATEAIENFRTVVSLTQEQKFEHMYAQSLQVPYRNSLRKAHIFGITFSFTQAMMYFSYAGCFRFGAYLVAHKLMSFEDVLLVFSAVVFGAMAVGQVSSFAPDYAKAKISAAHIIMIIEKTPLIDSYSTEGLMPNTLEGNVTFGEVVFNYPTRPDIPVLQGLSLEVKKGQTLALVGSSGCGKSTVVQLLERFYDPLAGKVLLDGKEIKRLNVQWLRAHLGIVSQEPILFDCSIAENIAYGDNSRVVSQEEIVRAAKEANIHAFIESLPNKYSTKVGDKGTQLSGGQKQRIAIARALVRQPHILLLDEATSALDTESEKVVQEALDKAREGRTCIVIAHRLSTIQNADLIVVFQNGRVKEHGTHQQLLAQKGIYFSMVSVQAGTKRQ

Row | Structure (SMILES) | radioligand binding with self-competition by unlabelled vinblastine [1] | [3H]vinblastine radioligand competition and inhibition of [3H]azidopine photoaff [2]
1 | CC[C@]1(O)C[C@@H]2CN(CCc3c([nH]c4ccccc34)[C@@](C(=O)OC)(c3cc4c(cc3OC)N(C)[C@H]3[C@@](O)(C(=O)OC)[C@H](OC(C)=O)[C@]5(CC)C=CCN6CC[C@]43[C@@H]65)C2)C1 [vinblastine sulphate] | Competition of [3H]vinblastine sulphate binding by unlabelled vinblastine sulphate was included as a control. | –
2 | CN(C)CCCn1cc(C2=C(c3c[nH]c4ccccc34)C(=O)NC2=O)c2ccccc21 [GF 109203X] | – | Inhibition of the photo- affinity labelling was observed in a similar micromolar
